Measured values published in patent US5216156A, “Non-migrating 1-hydrocarbyloxy-2,2,6,6-tetramethylpiperidine 1,3,5-triazine derivatives” (Ciba-Geigy Corporation, priority 1992, dated 1993).

What was measured:
[1] = Extraction of stabilizer from high solids thermoset acrylic enamel film by refluxing toluene, GC (Example 78); settings: refluxing toluene one hour; for Percent Stabilizer Extracted: 1% by weight on resin solids, baked 30 minutes at 121° C., stored one week, GC; for extraction of stabilizer from the stabilized enamel: in words, thermoset acrylic enamel
Source text: A model high solids thermoset acrylic enamel based on a binder of 60% of a polymer comprising monomers such as 2-hydroxyethyl acrylate, butyl acrylate, butyl methacrylate, styrene and acrylic acid, and 40% of a melamine resin with an acid catalyst such as p-toluenesulfonic acid is formulated and stabilized with 1% by weight, based on resin solids, of a variety of hindered amine stabilizers.
This enamel is spray applied to a thickness of 1.8-2.0 mils (0.0457-0.0508 mm) onto glass plates and baked for 30 minutes at 250° F. (121° C.). After storage for one week in an air-conditioned room, the films are removed from the glass plates and placed in a round-bottomedflask and extracted with refluxing toluene for one hour. After one hour, the films are removed and the toluene extract is analyzed for extracted stabilizer by gas chromatography.

[2] = Extraction of stabilizer from polyester polyurethane refinish enamel film by refluxing toluene, GC (Example 75); settings: 2% by weight on resin solids, film baked 30 minutes at 60° C., stored one month, refluxing toluene one hour
Description: A polyester polyurethane refinish enamel is prepared from a polyester resin (DESMOPHEN® 670A-80, Mobay) and a polyurethane resin (DESMODUR® N-75, Mobay) in a ratio of 1.0:1.1 equivalents, with 1% DABCO® T-12 […] as catalyst. The enamel is stabilized with 2% by weight, based on resin solids, of various hindered amine stabilizers. The stabilized enamel is spray applied to a thickness of 1.8-2.0 mils (0.0457-0.0508 mm) onto glass plates and baked for 30 minutes at 140° F. (60° C.). After storage for one month in an air-conditioned room, the films are removed from the glass plates and placed in a round-bottomed flask and then extracted with refluxing toluene for one hour. The films are then removed and the toluene is analyzed for any stabilizer extracted by gas chromatography.
If the stabilizer is chemically bonded to the polymer film, little if any of the stabilizer is extracted by the refluxing toluene.

[3] = Hindered amine basicity (pKa); type: physicochemical; settings: Table 1; N-substituted derivatives of 4-hydroxy-2,2,6,6-tetramethylpiperidine
Source text: There are clear advantages in using the hindered amine compounds having 1-hydrocarbyloxy substitution. In certain polymer systems, there is a definite advantage in using a less basic stabilizer. For example, the cure of acid-catalyzed thermoset melamine crosslinked automotive coatings systems can be severely retarded by an interaction between the acid catalyst and a basic hindered amine stabilizer.

| Structure (SMILES) | Percent Stabilizer Extracted [1] | extraction of stabilizer from the stabilized enamel [1] | Percent Stabilizer Extracted [2] | pKa [3] |
| --- | --- | --- | --- | --- |
| CCCCN(c1nc(NCCO)nc(N(CCCC)C2CC(C)(C)N(OC3CCCCC3)C(C)(C)C2)n1)C1CC(C)(C)N(OC2CCCCC2)C(C)(C)C1 [Example 1, 2-[(2-Hydroxyethyl)amino]-4,6-bis[N-(1-cyclohexyloxy-2,2,6,6-tetramethylpiperidin-4-yl)-butylamino]-1,3,5-triazine] | 0% | resist extraction from the stabilized enamel | 0% |  |
| CCCCCCCCON1C(C)(C)CC(N(CCCC)c2nc(NCCO)nc(N(CCCC)C3CC(C)(C)N(OCCCCCCCC)C(C)(C)C3)n2)CC1(C)C [Example 2, 2-[(2-Hydroxyethyl)amino]-4,6-bis[N-(1-octyloxy-2,2,6,6-tetramethylpiperidin-4-yl)butylamino]-1,3,5-triazine] | 0% | resist extraction from the stabilized enamel | 0% |  |
| CCCCN(c1nc(NCCCCCC(=O)O)nc(N(CCCC)C2CC(C)(C)N(OC3CCCCC3)C(C)(C)C2)n1)C1CC(C)(C)N(OC2CCCCC2)C(C)(C)C1 [Example 15, N-{4,6-Bis[(1-cyclohexyloxy-2,2,6,6-tetramethylpiperidin-4-yl)butylamino]-1,3,5-triazin-2-yl}-6-aminohexanoic acid] |  |  | 23% |  |
| CCCCCCCCON1C(C)(C)CC(N(CCCC)c2nc(NCCCCCC(=O)O)nc(N(CCCC)C3CC(C)(C)N(OCCCCCCCC)C(C)(C)C3)n2)CC1(C)C [Example 16, N-{4,6-Bis[(1-octyloxy-2,2,6,6-tetramethylpiperidin-4-yl)butylamino]-1,3,5-triazin-2-yl}-6-aminohexanoic acid] |  |  | 21% |  |
| CCCCCCCCON1C(C)(C)CC(OC(=O)CCCCCCCCC(=O)OC2CC(C)(C)N(OCCCCCCCC)C(C)(C)C2)CC1(C)C [HA 1, bis(1-octyloxy-2,2,6,6-tetramethylpiperidin-4-yl) sebacate, reference compound] | 100% |  | 100% |  |
| CC1(C)CC(O)CC(C)(C)N1 [N--H, 4-hydroxy-2,2,6,6-tetramethylpiperidine] |  |  |  | 10.0 |
| CN1C(C)(C)CC(O)CC1(C)C [N--Me] |  |  |  | 10.0 |
| CON1C(C)(C)CC(O)CC1(C)C [N--OMe] |  |  |  | 4.8 |
